Experiments:
[1] = target: Dual specificity tyrosine-phosphorylation-regulated kinase 1A (Homo sapiens) (UniProt Q13627); experiment: Inhibition of human DYRK1A (129 to 509 residues) expressed in mammalian system assessed as remaining enzyme activity at 1 uM by KINOMEScan assay relative to control
Mus musculus [2] = experiment: In vivo inhibition of pan Pim in SCID-bg mouse xenografted with human KMS-12-BM cells assessed as phosphorylation of BAD peptide at Serine 112 residue at 10 mg/kg, po qd measured at 1 hr post dose relative to control; assay type: functional; set-up: scale not given: the % may be the effect or the level left
Mus musculus [3] = experiment: In vivo inhibition of pan Pim in SCID-bg mouse xenografted with human KMS-12-BM cells assessed as phosphorylation of BAD peptide at Serine 112 residue at 50 mg/kg, po qd measured at 4 hrs post dose relative to control; assay type: functional; set-up: scale not given: the % may be the effect or the level left
Mus musculus [4] = experiment: In vivo inhibition of pan Pim in SCID-bg mouse xenografted with human KMS-12-BM cells assessed as phosphorylation of BAD peptide at Serine 112 residue at 25 mg/kg, po qd measured at 1 hr post dose relative to control; assay type: functional; set-up: scale not given: the % may be the effect or the level left
Mus musculus [5] = experiment: In vivo inhibition of pan Pim in SCID-bg mouse xenografted with human KMS-12-BM cells assessed as phosphorylation of BAD peptide at Serine 112 residue at 25 mg/kg, po qd measured at 24 hrs post dose relative to control; assay type: functional; set-up: scale not given: the % may be the effect or the level left
KMS-12-BM [6] = experiment: Antitumor activity against human KMS-12-BM cells xenografted in SCID-bg mouse assessed as tumor growth inhibition at 50 mg/kg, po qd measured twice per week; assay type: functional; details: read-out: TGI
KMS-12-BM [7] = experiment: Antitumor activity against human KMS-12-BM cells xenografted in SCID-bg mouse assessed as tumor growth inhibition at 100 mg/kg, po qd measured twice per week; assay type: functional; details: read-out: TGI
Mus musculus [8] = experiment: In vivo inhibition of pan Pim in SCID-bg mouse xenografted with human KMS-12-BM cells assessed as phosphorylation of BAD peptide at Serine 112 residue at 50 mg/kg, po qd measured at 8 hrs post dose relative to control; assay type: functional; set-up: scale not given: the % may be the effect or the level left
Mus musculus [9] = experiment: In vivo inhibition of pan Pim in SCID-bg mouse xenografted with human KMS-12-BM cells assessed as phosphorylation of BAD peptide at Serine 112 residue at 100 mg/kg, po qd measured at 8 hrs post dose relative to control; assay type: functional; set-up: scale not given: the % may be the effect or the level left
[10] = target: T1, Mitogen-activated protein kinase kinase kinase 19 (Homo sapiens) (UniProt Q56UN5); experiment: Inhibition of human YSK4 (1019 to 1328 residues) expressed in mammalian system assessed as remaining enzyme activity at 1 uM by KINOMEScan assay relative to control
T1 sequence (whole entry): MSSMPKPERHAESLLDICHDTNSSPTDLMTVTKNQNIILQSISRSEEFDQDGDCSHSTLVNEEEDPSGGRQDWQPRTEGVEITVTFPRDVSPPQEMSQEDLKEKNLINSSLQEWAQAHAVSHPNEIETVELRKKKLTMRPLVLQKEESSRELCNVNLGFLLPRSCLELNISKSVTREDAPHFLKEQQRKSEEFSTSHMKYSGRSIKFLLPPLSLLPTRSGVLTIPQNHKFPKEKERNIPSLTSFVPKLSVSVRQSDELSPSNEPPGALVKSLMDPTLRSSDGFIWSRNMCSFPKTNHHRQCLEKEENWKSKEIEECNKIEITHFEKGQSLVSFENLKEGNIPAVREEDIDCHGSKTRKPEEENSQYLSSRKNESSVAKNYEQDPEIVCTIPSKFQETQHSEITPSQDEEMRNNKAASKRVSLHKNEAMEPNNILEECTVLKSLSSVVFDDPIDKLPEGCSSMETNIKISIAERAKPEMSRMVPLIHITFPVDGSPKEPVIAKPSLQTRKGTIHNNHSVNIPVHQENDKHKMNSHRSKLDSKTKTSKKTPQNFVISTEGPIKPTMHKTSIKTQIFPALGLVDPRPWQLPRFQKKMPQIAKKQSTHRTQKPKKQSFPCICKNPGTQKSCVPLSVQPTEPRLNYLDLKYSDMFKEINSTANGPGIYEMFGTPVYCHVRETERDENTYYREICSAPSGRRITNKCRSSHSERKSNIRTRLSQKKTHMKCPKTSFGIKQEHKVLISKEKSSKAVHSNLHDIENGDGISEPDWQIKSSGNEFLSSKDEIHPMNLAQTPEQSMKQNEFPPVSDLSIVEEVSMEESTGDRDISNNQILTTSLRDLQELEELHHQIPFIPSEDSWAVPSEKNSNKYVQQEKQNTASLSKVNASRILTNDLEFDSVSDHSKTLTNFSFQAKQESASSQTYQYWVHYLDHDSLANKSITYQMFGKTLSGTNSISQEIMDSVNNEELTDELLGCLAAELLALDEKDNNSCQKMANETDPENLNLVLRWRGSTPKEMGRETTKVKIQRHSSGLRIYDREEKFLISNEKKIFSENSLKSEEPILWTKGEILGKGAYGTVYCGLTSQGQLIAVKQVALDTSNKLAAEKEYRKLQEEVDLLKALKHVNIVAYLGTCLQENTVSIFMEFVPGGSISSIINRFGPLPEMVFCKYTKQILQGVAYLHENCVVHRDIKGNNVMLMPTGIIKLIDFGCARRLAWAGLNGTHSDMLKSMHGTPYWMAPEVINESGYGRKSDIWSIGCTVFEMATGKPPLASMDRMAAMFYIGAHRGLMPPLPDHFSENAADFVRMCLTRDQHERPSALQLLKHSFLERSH

Bos taurus = organism: Bos taurus; experiment: Inhibition of bovine I1-receptor assessed as remaining enzyme activity at 10 uM relative to untreated control
Mus musculus [11] = experiment: In vivo inhibition of pan Pim in SCID-bg mouse xenografted with human KMS-12-BM cells assessed as phosphorylation of BAD peptide at Serine 112 residue at 25 mg/kg, po qd measured at 8 hrs post dose relative to control; assay type: functional; set-up: scale not given: the % may be the effect or the level left

In the case of `C[C@H]1NC(=O)c2cc(-c3cccc4c(=O)n(C)c(NC(C)(C)C)nc34)[nH]c21`, the Activity [1] is reported as 6%, the Activity (Mus musculus [2]) is reported as 52% and the Activity (Mus musculus [3]) is reported as 66%. The Activity (Mus musculus [4]) was 60%, the Activity (Mus musculus [5]) was 0% and the inhibition in vivo at 50 mg/kg (KMS-12-BM [6]) was 93%. The inhibition in vivo at 100 mg/kg (KMS-12-BM [7]) was 95%, the Activity (Mus musculus [8]) was 85% and the Activity (Mus musculus [9]) was 70%. For the same compound, the Activity [10] was 0.4%, the Activity (Bos taurus) was under 10% and the Activity (Mus musculus [11]) was 60%.

Source: ChEMBL document CHEMBL4477213, “Discovery and Optimization of Quinazolinone-pyrrolopyrrolones as Potent and Orally Bioavailable Pan-Pim Kinase Inhibitors” (J Med Chem, 2016)
